According to the supplement of paper PMC10011410:
± gives the standard deviation of the averaged measurements.

Tests used:
Conditions in all cases: 24 h
[1] = test system: U-2 OS; assay: intracellular GSH:GSSG ratio (calculated); higher = more reduced glutathione pool
Experimental: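 Intracellular glutathione in U-2 OS cells after 24 h compound treatment at 5, 10 and 20 uM (some at 40 and 80 uM). Total glutathione and GSSG were measured with the GSH/GSSG-Glo kit, and the GSH:GSSG ratio was calculated. Mean of five technical replicate plates.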

[2] = test system: U-2 OS; assay: cell viability (CellTiter-Glo) relative to DMSO (% of control); higher = more viable
Experimental: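 Cell viability of U-2 OS cells by CellTiter-Glo after 24 h compound treatment at 5, 10 and 20 uM (some at 40 and 80 uM), measured in parallel with the glutathione assay, as percent of DMSO control. Five technical replicate plates, averaged.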

[3] = test system: U-2 OS; assay: total intracellular glutathione (GSH + GSSG) relative to DMSO (% of control); higher = more glutathione
Experimental: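 Total intracellular glutathione (GSH + GSSG) in U-2 OS cells by GSH/GSSG-Glo after 24 h compound treatment at 5, 10 and 20 uM (some at 40 and 80 uM), as percent of DMSO control. Five technical replicate plates, averaged.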

[4] = test system: U-2 OS; assay: cell painting activity score (Mahalanobis distance from DMSO wells); higher = stronger morphological phenotype
Procedure, shortened: (§1)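 U-2 OS cells were seeded at about 1,500 per well in 384-well plates and treated by pin tool for 24 h at 37 °C, usually at six 2-fold concentrations from 20 μM to 625 nM. After staining with MitoTracker, concanavalin A, phalloidin, wheat germ agglutinin, Hoechst and SYTO 14, plates were imaged on an Opera Phenix and features were extracted with CellProfiler and normalized to DMSO cells on the same plate. The activity score is the Mahalanobis distance from DMSO wells, and cell count is given relative to DMSO wells. Each value is the mean of four replicate plates.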

[5] = test system: U-2 OS; assay: relative cell count vs DMSO (cell painting) (fraction of DMSO control); higher = more cells remaining (less cytotoxic)
Procedure, shortened: as §1

| SMILES | intracellular GSH:GSSG ratio ([1]; 5 µM) | intracellular GSH:GSSG ratio ([1]; 10 µM) | intracellular GSH:GSSG ratio ([1]; 20 µM) | cell viability ([2]; 5 µM) | cell viability ([2]; 10 µM) | cell viability ([2]; 20 µM) | total intracellular glutathione ([3]; 5 µM) | total intracellular glutathione ([3]; 10 µM) | total intracellular glutathione ([3]; 20 µM) | cell painting activity score ([4]; 0.625 µM) | cell painting activity score ([4]; 1.25 µM) | cell painting activity score ([4]; 2.5 µM) | cell painting activity score ([4]; 5 µM) | cell painting activity score ([4]; 10 µM) | cell painting activity score ([4]; 20 µM) | relative cell count ([5]; 0.625 µM) | relative cell count ([5]; 1.25 µM) | relative cell count ([5]; 2.5 µM) | relative cell count ([5]; 5 µM) | relative cell count ([5]; 10 µM) | relative cell count ([5]; 20 µM) | intracellular GSH:GSSG ratio ([1]; 40 µM) | intracellular GSH:GSSG ratio ([1]; 80 µM) | cell viability ([2]; 40 µM) | cell viability ([2]; 80 µM) | total intracellular glutathione ([3]; 40 µM) | total intracellular glutathione ([3]; 80 µM) | cell painting activity score ([4]; 40 µM) | cell painting activity score ([4]; 80 µM) | relative cell count ([5]; 40 µM) | relative cell count ([5]; 80 µM) |
| --- | --- | --- | --- | --- | --- | --- | --- | --- | --- | --- | --- | --- | --- | --- | --- | --- | --- | --- | --- | --- | --- | --- | --- | --- | --- | --- | --- | --- | --- | --- | --- |
| Oc1cccc(-c2nc(N3CCOCC3)c3oc4ncccc4c3n2)c1 | 22.3 | 19.6 | 20.9 | 58.4 ± 1.5 | 56.8 ± 2.5 | 55.17 ± 0.53 | 58.8 ± 2.2 | 60.1 ± 3.8 | 58.6 ± 2.4 | 9.68 | 11.3 | 11.4 | 11.6 | 10 | 11.3 | 0.904 | 0.875 | 0.774 | 0.734 | 0.738 | 0.682 | – | – | – | – | – | – | – | – | – | – |
| O=S1(=O)CC(SCc2ccccc2)c2ccccc21 (centres undefined) | 30.3 | 20.1 | 26.3 | 107 ± 2.6 | 104 ± 5.2 | 97.8 ± 5.9 | 105 ± 2.7 | 98.7 ± 6.5 | 106 ± 6.4 | 4.11 | 4.32 | 4.24 | 4.29 | 3.77 | 3.73 | 1.13 | 1.12 | 1.06 | 1.07 | 1.14 | 1.12 | – | – | – | – | – | – | – | – | – | – |
| O=C(CSC1CC(=O)N(c2cccc(Cl)c2)C1=O)Nc1ccc(Br)cc1 (centres undefined) | 28 | 31.9 | 26.5 | 105 ± 8.8 | 99.5 ± 4.2 | 107 ± 5.8 | 94.6 ± 4.8 | 93.9 ± 4 | 95.2 ± 5.6 | 3.18 | 3.28 | 3.09 | 4.23 | 3.79 | 3.43 | 1.13 | 1.13 | 1.06 | 1.06 | 1.1 | 1.12 | – | – | – | – | – | – | – | – | – | – |
| C=C(C)[C@@H](CC=C(C)C)C[C@@]12C[C@@H](CC=C(C)C)C(C)(C)[C@@](CC=C(C)C)(C(=O)/C(=C(\O)c3ccc(O)c(O)c3)C1=O)C2=O | 21 | 16.1 | 24.5 | 97 ± 2.7 | 101 ± 5.7 | 86.3 ± 7 | 96.4 ± 3.2 | 89 ± 1.9 | 76.7 ± 6.1 | 5.64 | 4.81 | 6.25 | 5.03 | 9.54 | 9.17 | 0.996 | 0.96 | 0.961 | 0.986 | 0.836 | 0.53 | 21.3 | 0.823 | 44.8 ± 18 | 0.589 ± 0.13 | 53.2 ± 8.8 | 5.32 ± 1.5 | 14.9 | 28.1 | 0.267 | 0.116 |
